Results taken from US8546357B2, “Boron-containing small molecules for controlling ectoparasites” (priority 2011, dated 2013).

System: Lone star tick larvae (Amblyomma americanum)
Assay: Larval immersion microassay against larval-stage Lone star ticks
Details: for mortality at 300 µM: Amblyomma americanum, 24 h, read-out: activity (percent larval mortality); for In vitro activity at 0.3 mM: larval immersion microassay, 24 hours
Experimental: The larval immersion microassay was conducted as described in detail in White, et al., J. Med. Entomol. 41: 1034-1042 (2004). Compounds of the invention were formulated in dimethylsulfoxide (DMSO) to prepare a stock solution at a concentration of at least 10 mM. Using 96-well microtiter plates, an aliquot of the mM sample was subsequently diluted in a water-based solution containing 1% ethanol and 0.2% Triton X-100, to obtain the desired concentration (typically 0.3 mM or lower) of compound in a volume of 0.1 ml (minimum n=3 replicates per compound or concentration). Approximately 30-50 Lone star tick larvae (Amblyomma americanum) were submerged into each well containing compounds. After a 30 minute immersion period, larvae were removed with a wide-bore pipette tip in 0.05 ml of fluid, dispensed into a commercial paper tissue biopsy bag which was sealed at the top with a plastic dialysis clip, inverted and allowed to air dry for 60 minutes. Bags containing larvae were then incubated at approximately 27 degrees Celsius and >90% relative humidity. After 24 hours, bags were opened, live and dead larvae were counted and percent larval mortality was calculated.
7 and 8 contain one chiral center each, and are racemic mixtures comprised of approximately 50% R- and 50% S-enantiomer. In vitro and surrogate animal (rat) studies were conducted to evaluate the biological activity of the R- and S-enantiomers of 7 and 8. For the in vitro study, larvae of the Lone star tick (Amblyomma americanum) were exposed to 9, 10, 11 and 12 using the larval immersion microassay at a concentration of no greater than 0.3 mM. Following exposure, larvae were removed, transferred to a tissue biopsy bag and incubated at approximately 27 degrees Celsius and >90% relative humidity. After 24 hours, biopsy bags were opened and the numbers of live and dead larvae were determined

In the case of `Cc1cc(C2=NOC(c3cc(Cl)c(F)c(Cl)c3)(C(F)(F)F)C2)ccc1C(=O)NCCc1ccc2c(c1)B(O)OC2(C)C` (centres unmarked) [Compound 20, 4-(5-(3,5-Dichloro-4-fluorophenyl)-5-(trifluoromethyl)-4,5-dihydroisoxazol-3-yl)-N-(2-(1-hydroxy-3,3-dimethyl-1,3-dihydrobenzo[c][1,2]oxaborol-6-yl)ethyl)-2-methylbenzamide], the mortality at 300 µM is reported as ≥ 80%.

For `Cc1cc(C2=NOC(c3cc(Cl)c(Cl)c(Cl)c3)(C(F)(F)F)C2)ccc1C(=O)NCCc1ccc2c(c1)B(O)OC2(C)C` (centres unmarked) [Compound 19, N-(2-(1-Hydroxy-3,3-dimethyl-1,3-dihydrobenzo[c][1,2]oxaborol-6-yl)ethyl)-2-methyl-4-(5-(3,4,5-trichlorophenyl)-5-(trifluoromethyl)-4,5-dihydroisoxazol-3-yl)benzamide], the mortality at 300 µM was ≥ 80%.

`Cc1cc(C2=NOC(c3cc(Cl)c(Cl)c(Cl)c3)(C(F)(F)F)C2)ccc1C(=O)NCc1cc(F)c2c(c1)B(O)OC2(C)C` (centres unmarked) [Compound 24, N-((4-fluoro-1-hydroxy-3,3-dimethyl-1,3-dihydrobenzo[c][1,2]oxaborol-6-yl)methyl)-2-methyl-4-(5-(3,4,5-trichlorophenyl)-5-(trifluoromethyl)-4,5-dihydroisoxazol-3-yl)benzamide] was tested, and the mortality at 300 µM was ≥ 80%.

With `Cc1cc(C2=NO[C@](c3cc(Cl)c(Cl)c(Cl)c3)(C(F)(F)F)C2)ccc1C(=O)NCc1ccc2c(c1)B(O)OC2(C)C` [Compound 10, (R)—N-((1-hydroxy-3,3-dimethyl-1,3-dihydrobenzo[c][1,2]oxaborol-6-yl)methyl)-2-methyl-4-(5-(3,4,5-trichlorophenyl)-5-(trifluoromethyl)-4,5-dihydroisoxazol-3-yl)benzamide] the “In vitro activity at 0.3 mM” value was 0.0%.

For `CCC1(CC)OB(O)c2cc(CNC(=O)c3ccc(C4=NOC(c5cc(Cl)cc(Cl)c5)(C(F)(F)F)C4)cc3C)ccc21` (centres unmarked) [Compound 13, 4-(5-(3,5-Dichlorophenyl)-5-(trifluoromethyl)-4,5-dihydroisoxazol-3-yl)-N-((3,3-diethyl-1-hydroxy-1,3-dihydrobenzo[c][1,2]oxaborol-6-yl)methyl)-2-methylbenzamide], the mortality at 300 µM was ≥ 80%.

In the case of `Cc1cc(C2=NOC(c3cc(Cl)cc(Cl)c3)(C(F)(F)F)C2)ccc1C(=O)NCc1ccc2c(c1)B(O)OC2(CF)CF` (centres unmarked) [Compound 16, N-((3,3-Bis(fluoromethyl)-1-hydroxy-1,3-dihydrobenzo[c][1,2]oxaborol-6-yl)methyl)-4-(5-(3,5-dichlorophenyl)-5-(trifluoromethyl)-4,5-dihydroisoxazol-3-yl)-2-methylbenzamide], the mortality at 300 µM is reported as ≥ 80%.

With `Cc1cc(C2=NOC(c3cc(Cl)c(Cl)c(Cl)c3)(C(F)(F)F)C2)ccc1C(=O)NCc1ccc2c(c1)C(C)(C)OB2O` (centres unmarked) [Compound 1, N-((1-Hydroxy-3,3-dimethyl-1,3-dihydrobenzo[c][1,2]oxaborol-5-yl)methyl)-2-methyl-4-(5-(3,4,5-trichlorophenyl)-5-(trifluoromethyl)-4,5-dihydroisoxazol-3-yl)benzamide] the mortality at 300 µM was ≥ 80%.

For `Cc1cc(C2=NOC(c3cc(Cl)c(Cl)c(Cl)c3)(C(F)(F)F)C2)ccc1C(=O)NCc1ccc2c(c1)B(O)OC21CCCC1` (centres unmarked) [Compound 18, N-((1-Hydroxy-1H-spiro[benzo[c][1,2]oxaborole-3,1′-cyclopentan]-6-yl)methyl)-2-methyl-4-(5-(3,4,5-trichlorophenyl)-5-(trifluoromethyl)-4,5-dihydroisoxazol-3-yl)benzamide], the mortality at 300 µM was ≥ 80%.

In the case of `Cc1cc(C2=NOC(c3cc(Cl)c(Cl)c(Cl)c3)(C(F)(F)F)C2)ccc1C(=O)NCc1ccc2c(c1)B(O)OC2(CF)CF` (centres unmarked) [Compound 17a, N-((3,3-Bis(fluoromethyl)-1-hydroxy-1,3-dihydrobenzo[c][1,2]oxaborol-6-yl)methyl)-2-methyl-4-(5-(3,4,5-trichlorophenyl)-5-(trifluoromethyl)-4,5-dihydroisoxazol-3-yl)benzamide], the mortality at 300 µM is reported as ≥ 80%.

In the case of `CCC1(CC)OB(O)c2cc(CNC(=O)c3ccc(C4=NOC(c5cc(Cl)c(F)c(Cl)c5)(C(F)(F)F)C4)cc3C)ccc21` (centres unmarked) [Compound 14, 4-(5-(3,5-Dichloro-4-fluorophenyl)-5-(trifluoromethyl)-4,5-dihydroisoxazol-3-yl)-N-((3,3-diethyl-1-hydroxy-1,3-dihydrobenzo[c][1,2]oxaborol-6-yl)methyl)-2-methylbenzamide], the mortality at 300 µM is reported as ≥ 80%.

For `Cc1cc(C2=NO[C@](c3cc(Cl)c(F)c(Cl)c3)(C(F)(F)F)C2)ccc1C(=O)NCc1ccc2c(c1)B(O)OC2(C)C` [Compound 12, (R)-4-(5-(3,5-Dichloro-4-fluorophenyl)-5-(trifluoromethyl)-4,5-dihydroisoxazol-3-yl)-N-((1-hydroxy-3,3-dimethyl-1,3-dihydrobenzo[c][1,2]oxaborol-6-yl)methyl)-2-methylbenzamide], the “In vitro activity at 0.3 mM” value was 0.0%.

`Cc1cc(C2=NOC(c3cc(Cl)cc(Cl)c3)(C(F)(F)F)C2)ccc1C(=O)NCc1ccc2c(c1)C(C)(C)OB2O` (centres unmarked) [Compound 2, 4-(5-(3,5-Dichlorophenyl)-5-(trifluoromethyl)-4,5-dihydroisoxazol-3-yl)-N-((1-hydroxy-3,3-dimethyl-1,3-dihydrobenzo[c][1,2]oxaborol-5-yl)methyl)-2-methylbenzamide] was tested, and the mortality at 300 µM was ≥ 80%.

For `Cc1cc(C2=NOC(c3cc(Cl)c(Cl)c(Cl)c3)(C(F)(F)F)C2)ccc1C(=O)NC(C)c1ccc2c(c1)B(O)OC2(C)C` (centres unmarked) [Compound 22a, N-(1-(1-Hydroxy-3,3-dimethyl-1,3-dihydrobenzo[c][1,2]oxaborol-6-yl)ethyl)-2-methyl-4-(5-(3,4,5-trichlorophenyl)-5-(trifluoromethyl)-4,5-dihydroisoxazol-3-yl)benzamide], the mortality at 300 µM was ≥ 80%.

With `Cc1cc(C2=NOC(c3cc(Cl)cc(Cl)c3)(C(F)(F)F)C2)ccc1C(=O)NCc1ccc2c(c1)B(O)OC2` (centres unmarked) [Compound 4, 4-(5-(3,5-Dichlorophenyl)-5-(trifluoromethyl)-4,5-dihydroisoxazol-3-yl)-N-((1-hydroxy-1,3-dihydrobenzo[c][1,2]oxaborol-6-yl)methyl)-2-methylbenzamide] the mortality at 300 µM was ≥ 80%.
